Like-named read-outs stand apart in the source and are kept apart here. *1 amine or outer side, *2 acyl side, *3 side chain or, on linkers, in order; H or OH if unused. Where a SMILES comes first, the peptide text is derived from it. [ ]: non-standard residue; d: D form. X2 = C[C@@H]1C([C@@H](N[*:1])C(=O)[*:2])[C@H]1C; X1 = C[C@@H]1C([C@H](N[*:1])C(=O)[*:2])[C@H]1C; X3 = CC1C(C)C1C(N[*:1])C(=O)[*:2]; NMeL = CN[CH](CC(C)C)C(=O)O; NMeA = CN[CH](C)C(=O)O; dNMeA = CN[C@H](C)C(=O)O
Legend:
[1] = test system: panel of cancer cell lines comprising KB, HCT116, LNCaP, A549, MCF7, HL60, Hela and A375; settings: for IC50: read-out: Cell killing activity, IC50 values range over the panel, range over panel of human cancer cell lines
[2] = test system: oral epidermoid (KB) carcinoma cell line; experiment: Cytotoxicity assay (sulforhodamine B), KB; assay type: cell-based, human; settings: KB cells; for IC50: 72 hours, read-out: Cytotoxic activity IC50, KB
Method: (§4) Pure compounds are evaluated against the human cancer cell lines comprising our cytotoxicity screening panel. Cytotoxicity assays involving oral epidermoid (KB), colon (HCT116), prostate (LNCaP), breast (MCF7), Hela (cervical), leukemia (HL-60) melanoma (A375) and lung (A549) carcinoma cell lines, are performed using sulforhodamine B according to established protocols (Zhang et al., Journal of Medicinal Chemistry 2006; 49: 693-708; and Jutiviboonsuk A et al., Phytochemistry 2005; 66: 2745-2751.). KB and A375 cells are maintained in DMEM (Dulbecco's modified Eagle medium) medium. LNCaP and HL60 cells are maintained in RPMI1640 medium with hormone-free 10% heat-activated FBS (fetal bovine serum) supplemented with 0.1 nM testosterone. MCF7 and Hela cells are maintained and assayed in MEME (Minimum Essential Medium Eagle) medium containing 10 mg/L of insulin. HCT116 cells are maintained in McCoy's 5A medium supplemented with 10% fetal bovine serum. A549 cells are maintained in RPMI-1640 medium supplemented with 10% FCS. Serial dilutions of the compounds are prepared using 10% aqueous DMSO as solvent. The 190 μL cell suspension (3×10^4 cells in 1 ml media) is incubated with 10 μL sample solutions, in triplicate, in 96-well tissue culture plate at 37° C. in a humidified atmosphere of 5% CO2 in air for 72 hours. 10 μL 10% aqueous DMSO is used as control group. Then the cells are fixed to plastic substratum by the addition of 100 μL cold 20% aqueous trichloroacetic acid and washing with water after incubation at 4° C. for 30 min. After staining cells with 100 μL of 0.4% sulforhodamine B in 1% aqueous AcOH for 30 min, unbound dye is removed by rinsing with 1% aqueous AcOH. The bound dye is solubilized with 200 μL 10 mM unbuffered Tris base, pH 10, and the optical density is measured at 515 nm using an ELISA plate reader. The average data are expressed as a percentage, relative to the control. The IC50 values, the dose that inhibit cell growth by 50%, are calculated using nonlinear regression analysis (percent survival versus concentration).

[3] = test system: breast (MCF7) carcinoma cell line; experiment: cells; assay type: cell-based, human; settings: for IC50: 72 hours, read-out: Cytotoxic activity IC50, MCF7; for IC90: read-out: Cytotoxic activity IC90, MCF7
Method: as §4

[4] = test system: lung (A549) carcinoma cell line; experiment: cells; assay type: cell-based, human; settings: for IC50: 72 hours, read-out: Cytotoxic activity IC50, A549; for IC90: read-out: Cytotoxic activity IC90, A549
Method: as §4

[5] = test system: colon (HCT116) carcinoma cell line; experiment: Cytotoxicity assay (sulforhodamine B), HCT116; settings: read-out: Cytotoxic activity IC50, HCT116; HCT116 cells, 72 hours
Method: as §4

3T3-L1 murine adipocytes [6] = experiment: 3T3-L1 fat accumulation (triglyceride) assay; assay type: cell-based; settings: differentiated 3T3-L1 adipocytes, 7 days, read-out: Anti-obesity activity (fat accumulation) EC50
Method: (§1) MV-A, MV-B, MV-C and MV-D are evaluated for their anti-obesity effects in 3T3-L1 murine adipocytes. 3T3-L1 cells are cultured in the presence of insulin to induce adipocyte differentiation.
(§2) Pure compounds are evaluated against 3T3-L1 cell line for their potential anti-obesity activity. […] After the cells reach 100% confluence, the culture medium is changed to a differentiation DMEM medium containing 10% FCS, […], 0.5 mM 3-isobutyl-1-methylxanthine (IBMX), 90 U/mL penicillin, […] and 10 μg/mL insulin for induction of the adipocyte form of the 3T3-L1 cells. After 2 days, the differentiation medium is changed back to the normal DMEM medium and refreshed with the normal medium every 2 days. After incubation of additional 7 days, the cells are seeded in two sets of 96-well plates (about 10,000 cells per well). The test compounds in different concentrations are then added to the wells with 0.5% aqueous DMSO as control group. After incubation of 7 days, the differentiated 3T3-L1 adipocytes are treated with 2% Triton-X 100 ([…]) for 30 min at room temperature followed by sonication for 1 min. Fat accumulation is determined by measuring the liberated triglyceride using a Wato Triglyceride E-test Kit with the absorbance at 630/690 nm. The fat-accumulation rate is calculated as a percentage of the DMSO control. […] The cell viability of the differentiated 3T3-L1 adipocytes in another 96-well plate is treated with a Wako Cell Counting Kit-8 Test and measured with the absorbance at 450 nm. The cell viability is calculated as a percentage of the control.

[7] = test system: melanoma cancer cell line (A375); experiment: Hollow fiber in vivo test, A375; parameters: species or system mouse
Method: (§3) Hollow fiber tests are well known in the art for providing preliminary indications of therapeutic efficacy (Mi et al. J. Nat. Prod. 2002, 65: 842-850). In hollow fiber tests, human tumor cell lines currently employed in cell cultures are grown inside semipermeable hollow fibers to form heterogeneous solid tumor models. […] By evaluating the test compound's inhibition of tumor cell growth versus the toxic response in the host, a preliminary estimate of therapeutic efficacy is provided in a cost- and time effective manner.

MCF7-tumor xenograft = experiment: MCF7 xenograft mouse model; settings: for Inhibition of MCF7 tumor growth (excised tumor weights): twice a week for 3 weeks
Method: The treatment started on the 12th day when the MCF7-tumor size reached approximately 100 mm^3 (L×W×H). Two doses of MV-A (1.0 and 2.0 mg/kg), paclitaxel (5 mg/kg), and vehicle were administered via i.p. (intraperitoneal), i.v. (intravenous), or oral respectively, to the tumor-bearing mice twice a week for 3 weeks ([…]).
Antitumor animal study. All animal studies were approved and performed according to Animal Care and Use Guidelines of the Animal Ethics Committee at Hong Kong Baptist University and performed following Animal Care and Use guidelines set by NIH (National Institute of Health, USA). BALB/c nude mice, SPF class, male or female, 5-6 weeks old, were purchased from Charles River Laboratories. Before the experiment, it is one week of acclimatization to SPF class laboratory conditions. MV-A is tested for its anticancer activity against HCT116 and MCF7 cancer cells using a number of nude mice (Balc/nu/nu, female) in comparison of paclitaxel and maytansine. HCT116 or MCF7 cancer cells are subcutaneously implanted with 5×10^6 cells in the rear flank of each mouse. Female mice receiving MCF-7 cells are implanted with an s.c. pellet of 17β-estradiol (0.72 mg/pellet) a few days prior to injection to induce tumors. […] The mice are divided into 5 groups for HCT116 cancer cells: one high dose (1.0 mg/kg: 10 mice) group of MV-A, one low dose (0.5 mg/kg: 10 mice) group of MV-A, one dose (5.0 mg/kg: 10 mice) of paclitaxel, one dose of maytansine (0.1 mg/kg) and one dose of vehicle (negative control: 10 mice). The mice are then divided into 4 groups for MCF7 cancer cells: one high dose (2.0 mg/kg: 10 mice) group of MV-A, one low dose (1.0 mg/kg: 10 mice) group of MV-A, one dose (5.0 mg/kg: 10 mice) of paclitaxel, and one dose of vehicle (negative control: 10 mice). Every other day administration via i.p. (intraperitoneal), i.v. (intravenous), or oral, respectively are scheduled for 21 days for the HCT116 groups. Twice a week injections administered via i.p. (intraperitoneal), i.v. (intravenous), or oral, respectively are scheduled for […] for the MCF7 groups. Weights of mice and tumor diameters are measured twice a week until the end of the experiment. The tumor size in mm^3 was calculated by the formula: tumor size=length×width×height (L×W×H).

[8] = test system: colon cancer cell line (HCT116); experiment: Hollow fiber in vivo test, HCT116; parameters: species or system mouse
Method: as §3

[9] = test system: lung cancer cell line (A549); experiment: Hollow fiber in vivo test, A549; parameters: species or system mouse
Method: as §3

[10] = test system: breast cancer cell line (MCF7); experiment: Hollow fiber in vivo test, MCF7; parameters: species or system mouse
Method: as §3

[11] = Body weight of mice after drug treatment; settings: 1 mg/kg and 2 mg/kg
HCT116-tumor xenograft = experiment: HCT116 xenograft mouse model; assay type: in vivo; settings: for Inhibition of HCT116 tumor growth (excised tumor weights): every other day for 21 days
Method: The treatment started on the 6th day when the HCT116-tumor reached approximately 100 mm^3 (L×W×W). […] All mice died for the maytansine group after the initial two treatments at the dose of 0.1 mg/kg, indicating the highly toxicity of maytansine.

[12] = test system: cervical cancer cell line (Hela); experiment: Hollow fiber in vivo test, Hela; parameters: species or system mouse
Method: as §3

3T3-L1 murine adipocytes [13] = experiment: 3T3-L1 adipocyte cell viability; assay type: cell-based; settings: differentiated 3T3-L1 adipocytes
Method: as §1, §2

[14] = test system: prostate (LNCaP) carcinoma cell line; experiment: cells; assay type: cell-based, human; settings: Homo sapiens, 72 hours, read-out: Cytotoxic activity IC50, LNCaP
Method: as §4

CC(C)CC1NC(=O)C(C)N(C)C(=O)C(C)N(C)C(=O)C(C2C(C)C2C)NC(=O)C(CC(C)C)N(C)C(=O)C(C)N(C)C(=O)C(CC(C)C)NC1=O (stereo not drawn) [Compound 3] (cyclo([X3][NMeA][NMeA]LL[NMeA][NMeL]); configuration not given here)
Reduction in activity in comparison with 1 ([1]; compound with only one DMCPA residue versus 1): at least 100 times | IC50 [2]: 12.5 nM | IC50 [3]: 26.6 nM | IC50 [4]: 51.8 nM | IC50 [5]: 43.5 nM

CC(C)C[C@H]1NC(=O)[C@@H](C)N(C)C(=O)[C@H](C)N(C)C(=O)[C@H](C2[C@@H](C)[C@@H]2C)NC(=O)[C@H](CC(C)C)N(C)C(=O)[C@H](C)N(C)C(=O)[C@@H](C2[C@@H](C)[C@@H]2C)NC1=O (stereo partly drawn) [MV-A] (cyclo([NMeA][NMeL][X1][NMeA][dNMeA][dL][X2]))
EC50 (3T3-L1 murine adipocytes [6]): 0.3 nM | Inhibition (%) ([7]; A375-IP, 0.2 mg/kg): 35.3% | Inhibition (%) ([7]; A375-IP, 0.4 mg/kg): 67.4% | Inhibition (%) ([7]; A375-SC, 0.2 mg/kg): 17.2% | Inhibition (%) ([7]; A375-SC, 0.4 mg/kg): 27.8% | Inhibition of MCF7 tumor growth (excised tumor weights) (MCF7-tumor xenograft; 1.0 mg/kg (low dose)): 48.1% | Inhibition of MCF7 tumor growth (excised tumor weights) (MCF7-tumor xenograft; 2.0 mg/kg (high dose)): 72.6% | Weight loss of mice after the first two treatments (MCF7-tumor xenograft; MCF7 xenograft, 1.0 and 2.0 mg/kg groups): 1 to 2 g | Inhibition (%) ([8]; HCT116-IP, 0.1 mg/kg): 33.1% | Inhibition (%) ([8]; HCT116-IP, 0.2 mg/kg): 53.3% | Inhibition (%) ([8]; HCT116-IP, 0.8 mg/kg): 65.0% | Inhibition (%) ([8]; HCT116-SC, 0.1 mg/kg): 0% | Inhibition (%) ([8]; HCT116-SC, 0.2 mg/kg): 15.1% | Inhibition (%) ([8]; HCT116-SC, 0.8 mg/kg): 12.7% | Inhibition (%) ([9]; A549-IP, 0.05 mg/kg): 18.2% | Inhibition (%) ([9]; A549-IP, 0.1 mg/kg): 56.6% | Inhibition (%) ([9]; A549-SC, 0.05 mg/kg): 0% | Inhibition (%) ([9]; A549-SC, 0.1 mg/kg): 36.4% | Inhibition (%) ([10]; MCF7-IP, 0.05 mg/kg): 65.9% | Inhibition (%) ([10]; MCF7-IP, 0.1 mg/kg): 76.8% | Inhibition (%) ([10]; MCF7-IP, 0.2 mg/kg): 68.3% | Inhibition (%) ([10]; MCF7-IP, 0.4 mg/kg): 66.7% | Inhibition (%) ([10]; MCF7-SC, 0.05 mg/kg): 0% | Inhibition (%) ([10]; MCF7-SC, 0.1 mg/kg): 0% | Inhibition (%) ([10]; MCF7-SC, 0.2 mg/kg): 13.9% | Inhibition (%) ([10]; MCF7-SC, 0.4 mg/kg): 56.0% | Mortality during the treatments [11]: No mice die | Toxicity observed from dissection of the mice [11]: No sign of toxicity | Drop of average weight of mice after the first two treatments ([11]; intravenous, intraperitoneal or oral): 1 to 2 g | Inhibition of HCT116 tumor growth (excised tumor weights) (HCT116-tumor xenograft; 0.5 mg/kg (low dose)): 31.1% | Inhibition of HCT116 tumor growth (excised tumor weights) (HCT116-tumor xenograft; 1.0 mg/kg (high dose)): 52.8% | Weight loss of mice after the first two treatments (HCT116-tumor xenograft; HCT116 xenograft, 0.5 and 1.0 mg/kg groups): 1 to 2 g | Inhibition (%) ([12]; Hela-IP, 0.2 mg/kg): 45.8% | Inhibition (%) ([12]; Hela-IP, 0.4 mg/kg): 82.7% | Inhibition (%) ([12]; Hela-SC, 0.2 mg/kg): 23.2% | Inhibition (%) ([12]; Hela-SC, 0.4 mg/kg): 52.8% | IC50 [1]: 0.05 to 1.5 nM | IC50 (3T3-L1 murine adipocytes [13]): 12.9 nM

CC(C)C[C@H]1NC(=O)[C@@H](C)N(C)C(=O)[C@H](C)N(C)C(=O)[C@H](C2[C@@H](C)[C@@H]2C)NC(=O)[C@H](CC(C)CO)N(C)C(=O)[C@H](C)N(C)C(=O)[C@@H](C2[C@@H](C)[C@@H]2C)NC1=O (stereo partly drawn) [MV-B]
EC50 (3T3-L1 murine adipocytes [6]): 2.6 nM | IC50 [1]: 0.7 to 9.1 nM | IC50 (3T3-L1 murine adipocytes [13]): 83.7 nM

CC(C)C[C@H]1NC(=O)[C@@H](C)N(C)C(=O)[C@H](C)N(C)C(=O)[C@H](C2[C@@H](C)[C@@H]2C)NC(=O)[C@H](CC(C)C)N(C)C(=O)[C@H](C)N(C)C(=O)[C@@H](CC(C)C)NC1=O (stereo partly drawn) [MV-C] (HELM PEPTIDE1{[meA].[meL].[C[C@@H]1C([C@H](N[*:1])C(=O)[*:2])[C@H]1C].[meA].[C[C@H](C(=O)[*:2])N(C)[*:1]].[dL].[dL]}$PEPTIDE1,PEPTIDE1,1:R1-7:R2$$$V2.0)
EC50 (3T3-L1 murine adipocytes [6]): 38.9 nM | IC50 [1]: 12 to 60 nM | IC50 (3T3-L1 murine adipocytes [13]): 689 nM

COc1cc2cc(c1Cl)N(C)C(=O)C[C@H](OC(=O)[C@H](C)N(C)C(C)=O)[C@]1(C)O[C@H]1[C@H](C)[C@@H]1C[C@@](O)(NC(=O)O1)[C@H](OC)/C=C/C=C(\C)C2 [Maytansine, reference compound]
IC50 [14]: 0.56 nM | Mortality of tumor-bearing mice (HCT116-tumor xenograft; 0.1 mg/kg, after the first two treatments): All mice died | IC50 ([2]; Homo sapiens): 0.16 nM | Cytotoxic activity IC90, KB [2]: ~5 nM | IC50 ([3]; Homo sapiens): 0.69 nM | IC90 ([3]; Homo sapiens): > 20 nM | IC50 ([4]; Homo sapiens): 3.18 nM | IC90 ([4]; Homo sapiens): > 40 nM

CC[C@]1(O)C[C@@H]2CN(CCc3c([nH]c4ccccc34)[C@@](C(=O)OC)(c3cc4c(cc3OC)N(C)[C@H]3[C@@](O)(C(=O)OC)[C@H](OC(C)=O)[C@]5(CC)C=CCN6CC[C@]43[C@@H]65)C2)C1 [Vinblastine, reference compound]
Cytotoxic activity IC90, KB [2]: 10.1 nM | IC90 ([3]; Homo sapiens): > 50 nM | IC90 ([4]; Homo sapiens): > 40 nM

Source: patent publication US9963485B2, “Cycloheptapeptide agents for treatment of cancer and obesity diseases” (Hong Kong Baptist University, priority 2012, dated 2018)
